Structures can show the parent of a compound that is named as a salt.

The first experiment concerns acetic acid-induced writhing in ddy mice. The experiment can be described thus: animal or person. Type of experiment: in vivo, 5 week old ddy mice. To be noted: Mus musculus, sc, s.c. 15 minutes before acetic acid, read-out: ED50. The protocol:
5 week old ddy mice were used in this test. After intraperitoneal administration of 0.1 ml of 0.6% aqueous acetic acid per 10 g of body weight, the number of writhing reactions that occurred in 10 minutes starting 10 minutes after administration was evaluated for the indicator. The test drug was administered subcutaneously into the backs of the animals 15 minutes before administration of acetic acid.
For `CN(C(=O)OCc1ccccc1)[C@H]1CC[C@@]2(O)[C@H]3Cc4cccc5c4[C@@]2(CCN3CC2CC2)[C@H]1O5` [Compound 74, 17-cyclopropylmethyl-14β-hydroxy-4,5α-epoxy-6α-(N-methylbenzyloxycarbamido)morphinan.cndot.phosphate], the ED50 amounted to 0.78 mg/kg.
For `CN(C(=O)CC1CCCCC1)[C@H]1CC[C@@]2(O)[C@H]3Cc4ccc(O)c5c4[C@@]2(CCN3CC2CC2)[C@H]1O5` [Compound 85], the ED50 was determined as 0.113 mg/kg.
In the case of `CN(C(=O)Cc1ccc([N+](=O)[O-])cc1)[C@H]1CC[C@@]2(O)[C@H]3Cc4ccc(O)c5c4[C@@]2(CCN3CC2CC2)[C@H]1O5` [Compound 87, 17-cyclopropylmethyl-3,14β-dihydroxy-4,5α-epoxy-6α-(N-methyl-4-nitrophenylacetamido)morphinan.cndot.hydrochloride], the ED50 amounted to 0.027 mg/kg.
The same measure, in the same setting: in the case of `CN(C(=O)CCC1CCCCC1)[C@H]1CC[C@@]2(O)[C@H]3Cc4ccc(O)c5c4[C@@]2(CCN3CC2CC2)[C@H]1O5` [Compound 94, 17-cyclopropylmethyl-3,14β-dihydroxy-4,5α-epoxy-6α-(N-methyl-3-cyclohexylpropionamido)morphinan.cndot.hydrochloride] it was 0.013 mg/kg; in that of `CN(C(=O)Cc1cccc2sccc12)[C@H]1CC[C@@]2(O)[C@H]3Cc4ccc(O)c5c4[C@@]2(CCN3CC2CC2)[C@H]1O5` [Compound 106, 17-cyclopropylmethyl-3,14β-dihydroxy-4,5α-epoxy-6α-(N-methyl-4-benzo[b]thienylacetamido)morphinan.cndot.hydrochloride], 0.25 mg/kg.
Regarding `CN([C@H]1CC[C@@]2(O)[C@H]3Cc4ccc(O)c5c4[C@@]2(CCN3CC2CC2)[C@H]1O5)S(=O)(=O)Cc1ccc(Cl)c(Cl)c1` [Compound 128, 17-cyclopropylmethyl-4,5α-epoxy-3,14β-dihydroxy-6α-(N-methyl-3,4-dichlorophenylmethanesulfonamido)morphinan.cndot.tartrate], the ED50 worked out at 0.63 mg/kg.
On to `CN(C(=O)NCc1ccccc1)[C@H]1CC[C@@]2(O)[C@H]3Cc4ccc(O)c5c4[C@@]2(CCN3CC2CC2)[C@H]1O5` [Compound 132, 17-Cyclopropylmethyl-3,14β-dihydroxy-4,5α-epoxy-6α-(N-methyl-N'-benzylureido)morphinan.cndot.tartrate], for which the ED50 was 0.073 mg/kg.
On the same count and under the same terms, in the case of `CN(C(=S)NCc1ccccc1)[C@H]1CC[C@@]2(O)[C@H]3Cc4ccc(O)c5c4[C@@]2(CCN3CC2CC2)[C@H]1O5` [Compound 133, 17-cyclopropylmethyl-3,14β-dihydroxy-4,5α-epoxy-6α-(N-methyl-N'-benzylthioureido)morphinan.cndot.tartrate] it was 0.044 mg/kg; in that of `CN(C(=S)NCc1ccccc1)[C@@H]1CC[C@@]2(O)[C@H]3Cc4ccc(O)c5c4[C@@]2(CCN3CC2CC2)[C@H]1O5` [Compound 134, 17-cyclopropylmethyl-3,14β-dihydroxy-4,5α-epoxy-6β-(N-methyl-N'-benzylthioureido)morphinan.cndot.tartrate], 0.15 mg/kg; in that of `CN(C(=O)Cc1ccc(N)cc1)[C@H]1CC[C@@]2(O)[C@H]3Cc4ccc(O)c5c4[C@@]2(CCN3CC2CC2)[C@H]1O5` [Compound 137, 17-cyclopropylmethyl-3,14β-dihydroxy-4,5α-epoxy-6α-(N-methyl-4-aminophenylacetamido)morphinanan.cndot.1.6 hydrochloride], 0.17 mg/kg.
`CN(C(=O)Cc1cccc(N)c1)[C@H]1CC[C@@]2(O)[C@H]3Cc4ccc(O)c5c4[C@@]2(CCN3CC2CC2)[C@H]1O5` [Compound 138, 17-Cyclopropylmethyl-3,14β-dihydroxy-4,5α-epoxy-6α-(N-methyl-3-aminophenylacetamido)morphinan.cndot.1.1 tartrate]: the ED50 was 0.014 mg/kg.
Consider `CC(=O)Oc1ccc2c3c1O[C@H]1[C@@H](N(C)C(=O)Cc4ccc(Cl)c(Cl)c4)CC[C@@]4(O)[C@@H](C2)N(CC2CC2)CC[C@]314` [Compound 139, 17-Cyclopropylmethyl-3-acetoxy-4,5α-epoxy-14β-hydroxy-6α-(N-methyl-3,4-dichlorophenylacetamido)morphinan.cndot.hydrochloride], for which the ED50 is 0.04 mg/kg.
With `COc1ccc2c3c1O[C@H]1[C@@H](N(C)C(=O)Cc4ccc(Cl)c(Cl)c4)CC[C@@]4(O)[C@@H](C2)N(CC2CC2)CC[C@]314` [Compound 142, 17-cyclopropylmethyl-4,5α-epoxy-14β-hydroxy-3-methoxy-6α-(N-methyl-3,4-dichlorophenylacetamido)morphinan.cndot.tartrate], the ED50 was 0.78 mg/kg.
`CC(=O)O[C@@]12CC[C@@H](N(C)C(=O)/C=C/c3ccccc3)[C@@H]3Oc4c(O)ccc5c4[C@@]31CCN(CC1CC1)[C@@H]2C5` [Compound 144, 17-Cyclopropylmethyl-3-hydroxy-14β-acetoxy-4,5α-epoxy-6β-(N-methylcinnamamido)morphinan.cndot.tartrate]: the ED50 worked out at 0.024 mg/kg.
Regarding `CN(C(=O)Cc1cccc(N=C=S)c1)[C@H]1CC[C@@]2(O)[C@H]3Cc4ccc(O)c5c4[C@@]2(CCN3CC2CC2)[C@H]1O5` [Compound 149, 17-cyclopropylmethyl-3,14β-dihydroxy-4,5α-epoxy-6α-(N-methyl-3-isothiocyanatophenylacetamido)morphinanan.cndot.methanesulfonate], the ED50 stood at 0.013 mg/kg.
Still for that read-out and setting: in the case of `Cc1ccc(/C=C/C(=O)N(C)[C@@H]2CC[C@@]3(O)[C@H]4Cc5ccc(O)c6c5[C@@]3(CCN4CC3CC3)[C@H]2O6)cc1` [Compound 155, 17-cyclopropylmethyl-3,14β-dihydroxy-4,5α-epoxy-6β-(N-methyl-4-methylcinnamamido)morphinan hydrochloride] it was 0.012 mg/kg; in that of `C/C(=C\C(=O)N(C)[C@@H]1CC[C@@]2(O)[C@H]3Cc4ccc(O)c5c4[C@@]2(CCN3CC2CC2)[C@H]1O5)c1ccccc1` [Compound 162, 17-cyclopropylmethyl-3,14β-dihydroxy-4,5α-epoxy-6β-(N-methyl-γ-methylcinnamamido)morphinan tartrate], 0.018 mg/kg; in that of `CN(C(=O)C#Cc1ccco1)[C@@H]1CC[C@@]2(O)[C@H]3Cc4ccc(O)c5c4[C@@]2(CCN3CC2CC2)[C@H]1O5.Cl` [Compound 175, 17-cyclopropylmethyl-3,14β-dihydroxy-4,5α-epoxy-6β-[N-methyl-3-(2-furyl)propiolamido]morphinan hydrochloride], 0.018 mg/kg.
Consider `COc1ccc(C#CC(=O)N(C)[C@@H]2CC[C@@]3(O)[C@H]4Cc5ccc(O)c6c5[C@@]3(CCN4CC3CC3)[C@H]2O6)cc1.Cl` [Compound 176, 17-cyclopropylmethyl-3,14β-dihydroxy-4,5α-epoxy-6β-[N-methyl-3-(4-methoxyphenyl)propiolamido]morphinan hydrochloride], for which the ED50 worked out at 0.11 mg/kg.
In the case of `CN(C(=O)C#Cc1ccoc1)[C@@H]1CC[C@@]2(O)[C@H]3Cc4ccc(O)c5c4[C@@]2(CCN3CC2CC2)[C@H]1O5.O=C(O)C(O)C(O)C(=O)O` [Compound 177, 17-cyclopropylmethyl-3,14β-dihydroxy-4,5α-epoxy-6β-[N-methyl-(3-furyl)propiolamido]morphinan tartrate], the ED50 is 0.0096 mg/kg.

The experiment is the same for the next values; noted with them: s.c. 15 minutes before acetic acid.
`Cc1ccc(C#CC(=O)N(C)[C@@H]2CC[C@@]3(O)[C@H]4Cc5ccc(O)c6c5[C@@]3(CCN4CC3CC3)[C@H]2O6)cc1.Cl` [Compound 171, 17-cyclopropylmethyl-3,14β-dihydroxy-4,5α-epoxy-6β-[N-methyl-3-(4-methylphenyl)propiolamido]morphinan hydrochloride] yielded an ED50 of 0.038 mg/kg.

The values above are taken from patent US6177438A, “Morphinan derivatives and pharmaceutical use thereof” (priority 1993, dated 2001).
